Laboratory results as given in patent publication US12509431B2, “1,4-dihydroquinazolinone compounds and uses thereof” (Edgewise Therapeutics, Inc., priority 2022, dated 2025).

How the values were obtained:
Assay type in all cases: biochemical
[1] = target: T1, Porcine Ventricle myofibrils (left ventricle of Yucatan minipigs) (Sus scrofa, UniProt P79293); test: Myofibril ATPase assay (PK/LDH NADH-coupled), ventricle myofibrils
T1 construct: Myofibrils from porcine cardiac muscle was isolated from the left ventricle of Yucatan minipigs; tissue Exemplar Genetics; host or cells: left ventricle of Yucatan minipigs
T1 sequence (P79293 whole entry): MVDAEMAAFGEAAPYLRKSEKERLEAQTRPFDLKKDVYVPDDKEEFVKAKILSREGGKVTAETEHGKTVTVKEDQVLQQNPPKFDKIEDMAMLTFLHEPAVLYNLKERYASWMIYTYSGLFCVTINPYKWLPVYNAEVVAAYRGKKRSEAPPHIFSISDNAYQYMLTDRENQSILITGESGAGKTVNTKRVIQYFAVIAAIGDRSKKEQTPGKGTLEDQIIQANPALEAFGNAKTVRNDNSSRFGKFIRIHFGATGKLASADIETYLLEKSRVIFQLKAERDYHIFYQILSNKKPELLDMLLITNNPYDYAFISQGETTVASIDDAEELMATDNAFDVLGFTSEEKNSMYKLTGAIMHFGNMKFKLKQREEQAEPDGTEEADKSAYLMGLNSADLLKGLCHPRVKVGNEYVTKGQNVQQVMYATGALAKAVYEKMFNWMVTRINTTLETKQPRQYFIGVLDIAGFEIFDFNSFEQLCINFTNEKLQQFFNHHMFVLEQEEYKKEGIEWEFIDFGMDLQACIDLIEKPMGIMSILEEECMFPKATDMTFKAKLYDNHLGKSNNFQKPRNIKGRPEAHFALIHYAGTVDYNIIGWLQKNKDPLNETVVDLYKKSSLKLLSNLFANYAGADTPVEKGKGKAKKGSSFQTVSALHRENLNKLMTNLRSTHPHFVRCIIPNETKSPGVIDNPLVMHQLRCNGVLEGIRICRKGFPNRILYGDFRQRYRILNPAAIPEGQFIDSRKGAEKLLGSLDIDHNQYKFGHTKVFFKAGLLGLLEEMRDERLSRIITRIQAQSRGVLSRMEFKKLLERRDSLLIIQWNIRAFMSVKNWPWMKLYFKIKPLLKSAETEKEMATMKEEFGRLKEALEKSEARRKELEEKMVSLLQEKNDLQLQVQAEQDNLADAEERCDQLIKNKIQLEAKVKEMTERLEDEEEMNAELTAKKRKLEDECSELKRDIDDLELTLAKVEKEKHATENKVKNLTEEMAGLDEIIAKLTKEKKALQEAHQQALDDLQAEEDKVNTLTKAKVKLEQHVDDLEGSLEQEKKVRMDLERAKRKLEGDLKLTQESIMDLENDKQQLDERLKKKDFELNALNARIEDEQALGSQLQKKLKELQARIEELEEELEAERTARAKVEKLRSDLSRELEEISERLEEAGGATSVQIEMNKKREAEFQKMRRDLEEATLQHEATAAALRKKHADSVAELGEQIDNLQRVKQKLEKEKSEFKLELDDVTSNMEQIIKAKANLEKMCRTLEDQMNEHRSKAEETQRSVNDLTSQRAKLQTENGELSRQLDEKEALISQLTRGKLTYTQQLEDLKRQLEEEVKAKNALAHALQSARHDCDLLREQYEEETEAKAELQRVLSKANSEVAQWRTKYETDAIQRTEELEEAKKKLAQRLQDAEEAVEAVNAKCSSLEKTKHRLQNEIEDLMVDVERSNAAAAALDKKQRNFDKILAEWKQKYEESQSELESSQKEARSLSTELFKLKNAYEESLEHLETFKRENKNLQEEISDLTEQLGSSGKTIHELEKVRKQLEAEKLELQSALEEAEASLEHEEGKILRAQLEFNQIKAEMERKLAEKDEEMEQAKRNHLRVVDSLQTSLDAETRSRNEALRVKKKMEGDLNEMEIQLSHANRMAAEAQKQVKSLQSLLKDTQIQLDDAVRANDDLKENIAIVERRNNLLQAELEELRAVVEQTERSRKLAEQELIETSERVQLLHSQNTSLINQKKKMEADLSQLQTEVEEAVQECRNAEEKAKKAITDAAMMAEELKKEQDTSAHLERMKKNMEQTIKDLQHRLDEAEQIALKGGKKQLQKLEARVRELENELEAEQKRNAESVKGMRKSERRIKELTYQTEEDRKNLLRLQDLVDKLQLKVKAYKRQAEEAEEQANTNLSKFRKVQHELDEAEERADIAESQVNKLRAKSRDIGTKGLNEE
Summary of the method: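 NADH depletion (A340) coupled through pyruvate kinase/lactate dehydrogenase reports ATPase rate of porcine left-ventricle myofibrils over 75 min kinetic reads. Regression slopes, vehicle-normalized, fitted by 4-parameter logistic give EC25 and, where available, EC50.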

[2] = test system: Porcine Atria myofibrils; test: Myofibril ATPase assay (PK/LDH NADH-coupled), atria myofibrils
Summary of the method: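 Values are EC25% (and, for inhibitors, EC50%) from 4-parameter logistic fits of activity normalized to vehicle wells. Rates came from linear regression of 340 nm kinetic reads (every 1.5-2 min, 75 min) of NADH-coupled ATP turnover by porcine atria myofibrils.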

[3] = test system: Rabbit Skeletal myofibrils (rabbit psoas muscle); test: Myofibril ATPase assay (PK/LDH NADH-coupled), skeletal myofibrils
Summary of the method: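 ATPase rate taken as linear-regression slope of A340 (NADH depletion through PK/LDH coupling) over a 75 min kinetic read, with psoas-derived rabbit skeletal myofibrils at pH 7.0. Four-parameter fits of vehicle-normalized activity give EC25 and, where reached, EC50.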

| SMILES | Porcine Ventricle IC25 ([1]; Table 8) [µM] | Porcine Atria IC25 ([2]; Table 8) [µM] | Rabbit Psoas IC25 ([3]; Table 8) [µM] | Porcine Ventricle IC25 ([1]; Table 7) [µM] | Porcine Atria IC25 ([2]; Table 7) [µM] | Rabbit Psoas IC25 ([3]; Table 7) [µM] |
| --- | --- | --- | --- | --- | --- | --- |
| Cc1ncnc([C@H](C)NC(=O)CN2Cc3c(ccc(F)c3F)NC2=O)c1F [Compound B344] | 8.84 | 1.29 | 2.78 |  |  |  |
| Cc1nnc(C(C)NC(=O)CN2Cc3c(ccc(F)c3F)NC2=O)o1 (stereo not drawn) [Compound B345] | 100.00 | 57.06 | 100.00 |  |  |  |
| Cc1ncc(F)c([C@@H](C)NC(=O)CN2Cc3c(ccc(F)c3F)NC2=O)n1 [Compound B346] | 1.63 | 0.22 | 59.27 |  |  |  |
| Cc1ncc(F)c([C@H](C)NC(=O)CN2Cc3c(ccc(F)c3F)NC2=O)n1 [Compound B347] | 100.00 | 100.00 | 100.00 |  |  |  |
| Cc1ncc(C#N)nc1[C@@H](C)NC(=O)CN1Cc2c(ccc(F)c2F)NC1=O [Compound B348] | 6.79 | 10.17 | 9.36 |  |  |  |
| Cc1ncc(C#N)nc1[C@H](C)NC(=O)CN1Cc2c(ccc(F)c2F)NC1=O [Compound B349] | 0.83 | 0.22 | 5.32 |  |  |  |
| O=C(CN1Cc2c(ccc(F)c2F)NC1=O)N[C@@H]1CCc2cc(F)cnc21 [Compound B350] | 0.50 | 0.30 | 0.62 |  |  |  |
| Cc1nc([C@H](C)NC(=O)CN2Cc3c(ccc(F)c3F)NC2=O)ncc1C#N [Compound B353] | 2.24 | 1.99 | 2.49 |  |  |  |
| Cc1nc(C#N)cnc1[C@@H](CO)NC(=O)CN1Cc2c(ccc(F)c2F)NC1=O [Compound B354] | 3.83 | 0.21 | 68.36 |  |  |  |
| Cc1nc(C#N)cnc1[C@H](CO)NC(=O)CN1Cc2c(ccc(F)c2F)NC1=O [Compound B355] | 0.14 | 0.05 | 0.07 |  |  |  |
| C[C@H](NC(=O)CN1Cc2cc(F)c(F)cc2NC1=O)c1ncc(C#N)cc1F [Compound B358] | 0.33 | 0.10 | 0.13 |  |  |  |
| Cc1nsc([C@@H](C)NC(=O)CN2Cc3c(ccc(F)c3F)NC2=O)n1 [Compound B359] | 100.00 | 4.96 | 13.87 |  |  |  |
| C[C@@H](NC(=O)CN1Cc2c(ccc(F)c2F)NC1=O)c1cc2c(cn1)N(C)CCO2 [Compound B360] | 9.49 | 44.86 | 100.00 |  |  |  |
| C[C@H](NC(=O)CN1Cc2c(ccc(F)c2F)NC1=O)c1cc2c(cn1)N(C)CCO2 [Compound B361] | 100.00 | 100.00 | 100.00 |  |  |  |
| O=C(CN1Cc2c(ccc(F)c2F)NC1=O)N[C@@H]1COCc2cc(F)cnc21 [Compound B362] | 1.04 | 100.00 | 0.52 |  |  |  |
| O=C(CN1Cc2c(ccc(F)c2F)NC1=O)N[C@H]1COCc2cc(F)cnc21 [Compound B363] | 100.00 | 100.00 | 100.00 |  |  |  |
| C[C@@H](NC(=O)CN1Cc2c(ccc(F)c2F)NC1=O)c1cc2c(cn1)OCCN2 [Compound B364] | 100.00 | 20.41 | 100.00 |  |  |  |
| C[C@H](NC(=O)CN1Cc2c(ccc(F)c2F)NC1=O)c1cc2c(cn1)OCCN2 [Compound B365] | 100.00 | 100.00 | 100.00 |  |  |  |

Next, values leading:

| Porcine Ventricle IC25 ([1]; Table 8) [µM] | Porcine Atria IC25 ([2]; Table 8) [µM] | Rabbit Psoas IC25 ([3]; Table 8) [µM] | Porcine Ventricle IC25 ([1]; Table 7) [µM] | Porcine Atria IC25 ([2]; Table 7) [µM] | Rabbit Psoas IC25 ([3]; Table 7) [µM] | SMILES |
| --- | --- | --- | --- | --- | --- | --- |
|  |  |  | 100 | 70.94 | 100 | N#Cc1cnc2c(c1)CC[C@H]2NC(=O)CN1C(=O)Nc2cccnc2C12CC2 [Compound N1] |
|  |  |  | 34.26 | 17.14 | 4.055 | N#Cc1cnc2c(c1)CC[C@@H]2NC(=O)CN1C(=O)Nc2cccnc2C12CC2 [Compound N2] |
|  |  |  | 100 | 2.59 | 18.85 | C[C@@H](NC(=O)CN1C(=O)Nc2ccc(C#N)nc2C12CC2)c1ncc(C#N)cc1F [Compound N3] |
|  |  |  | 0.474 | 0.07 | 0.1067 | C[C@H](NC(=O)CN1C(=O)Nc2ccc(C#N)nc2C12CC2)c1ncc(C#N)cc1F [Compound N4] |
|  |  |  | 0.1154 | 0.07 | 0.0178 | N#Cc1cc(F)c2c(c1)OC[C@H]2NC(=O)CN1Cc2c(ccnc2C(F)(F)F)NC1=O [Compound N5] |
|  |  |  | 38.22 | 2.82 | 2.918 | N#Cc1cc(F)c2c(c1)OC[C@@H]2NC(=O)CN1Cc2c(ccnc2C(F)(F)F)NC1=O [Compound N6] |
|  |  |  | 0.266 | 0.11 | 0.0355 | N#Cc1nccc2c1CN(CC(=O)N[C@@H]1COc3cc(F)cc(F)c31)C(=O)N2 [Compound N7] |
|  |  |  | 13.21 | 2.20 | 0.3271 | N#Cc1nccc2c1CN(CC(=O)N[C@H]1COc3cc(F)cc(F)c31)C(=O)N2 [Compound N8] |
|  |  |  | 13.44 | 0.82 | 0.4579 | O=C(CN1Cc2cnccc2NC1=O)N[C@@H]1COc2cc(F)cc(F)c21 [Compound N10] |
|  |  |  | 100 | 100.00 | 100 | O=C(CN1Cc2cnccc2NC1=O)N[C@H]1COc2cc(F)cc(F)c21 [Compound N11] |
|  |  |  | 100 | 7.63 | 100 | C[C@@H](NC(=O)CN1C(=O)Nc2ccc(C#N)nc2C12CC2)c1ccc(F)cc1F [Compound N12] |
|  |  |  | 0.8569 | 0.07 | 0.063 | C[C@H](NC(=O)CN1C(=O)Nc2ccc(C#N)nc2C12CC2)c1ccc(F)cc1F [Compound N13] |
|  |  |  | 100 | 1.16 | 100 | C[C@@H](NC(=O)CN1C(=O)Nc2ccc(C#N)nc2C12CC2)c1ncc(F)cc1F [Compound N14] |
|  |  |  | 2.788 | 0.07 | 0.197 | C[C@H](NC(=O)CN1C(=O)Nc2ccc(C#N)nc2C12CC2)c1ncc(F)cc1F [Compound N15, 2-{6′-Cyano-2′-oxo-1′H-spiro[cyclopropane-1,4′-pyrido[3,2-d]pyrimidin]-3′-yl}-N-[(1S)-1-(3,5-difluoropyridin-2-yl)ethyl]acetamide] |
|  |  |  | 100 | 0.60 | 1.645 | C[C@@H](NC(=O)CN1C(=O)Nc2cccnc2C12CC2)c1ccc(C#N)cn1 [Compound N16] |
|  |  |  | 100 | 75.12 | 100 | C[C@H](NC(=O)CN1C(=O)Nc2cccnc2C12CC2)c1ccc(C#N)cn1 [Compound N17] |
|  |  |  | 1.324 | 0.12 | 0.03098 | O=C(CN1Cc2c(ccnc2C(F)(F)F)NC1=O)N[C@@H]1COc2cc(F)cc(F)c21 [Compound N18] |
|  |  |  | 11.46 | 2.00 | 2.245 | O=C(CN1Cc2c(ccnc2C(F)(F)F)NC1=O)N[C@H]1COc2cc(F)cc(F)c21 [Compound N19] |
|  |  |  | 100 | 100.00 | 0.1315 | C[C@@H](NC(=O)CN1Cc2cnccc2NC1=O)c1ccc(C#N)cc1F [Compound N20] |
|  |  |  | 13.45 | 4.36 | 6.632 | C[C@H](NC(=O)CN1Cc2cnccc2NC1=O)c1ccc(C#N)cc1F [Compound N21] |
|  |  |  | 100 | 100.00 | 0.2583 | C[C@@H](NC(=O)CN1Cc2c(ccnc2C#N)NC1=O)c1ccc(C#N)cc1F [Compound N22] |
|  |  |  | 0.1625 | 0.28 | 0.0165 | C[C@H](NC(=O)CN1Cc2c(ccnc2C#N)NC1=O)c1ccc(C#N)cc1F [Compound N23] |
|  |  |  | 37.65 | 2.97 | 0.2119 | C[C@H](NC(=O)CN1Cc2c(C#N)cncc2NC1=O)c1ccc(F)cc1F [Compound N24, 2-{5-Cyano-2-oxo-1H,4H-pyrido[3,4-d]pyrimidin-3-yl}-N-[(1S)-1-(2,4-difluorophenyl)ethyl]acetamide] |
|  |  |  | 100 | 13.11 | 1.324 | C[C@@H](NC(=O)CN1C(=O)Nc2cccnc2C12CC2)c1ncc(C#N)cc1F [Compound N25] |
